From patent US10961492B2, “Microfluidic devices and related methods for generation and/or culture and/or maturation of three-dimensional cells and/or tissue constructs” (POLITECNICO DI MILANO, priority 2015, dated 2021)

Test system: mature cardiac construct
Experiment: drug screening on mature cardiac construct in the microfluidic device (spontaneous contraction frequency)
Assay type: cell-based, neonatal rats
Conditions: increasing concentrations 1 and 2 μg/ml in culture medium injected in sequence; evaluated 60 seconds after injection; 37° C.; with respect to control construct without drug
Description: The cells of interest were isolated using the following process. The cardiac tissue removed from the ventricles of neonatal rats was digested in trypsin (0.6 mg/ml, in a Hank balanced saline solution, HBSS) for 18 hours. The digestion was then blocked by adding 10 ml of culture medium (Dulbecco Modified Eagle's Medium, DMEM) containing: 10% of fetal bovine serum, 1% of penicillin-streptomycin, 1% of HEPES and 1% of L-Glutamine. The isolation of the cells from the matrix was then obtained with five passages in a solution of collagenase (1 mg/ml in HBSS) at 37° C. for 5 minutes. The cell suspension thus obtained was centrifuged at 700 rpm for 10 minutes, re-suspended in 25 ml of culture medium and seeded in a culture flask to isolate the fraction of cardiomyocytes (non-adherent).
For seeding inside the device, the cardiac cells thus isolated were diluted in a solution of fibrin gel at a cell concentration of 1×10^5 cells/μl. More specifically, for the seeding of 6 devices, 20 μl of fibrin gel were prepared by mixing 20×10^5 cells (estimated volume of 8.2 μl), 4 μl of calcium chloride, 4 μl of fibrinogen (20 mg/ml in sodium chloride), 2.8 μl of aprotinin (16 TIU/ml in distilled water) and 1 μl of thrombin (5 U/ml in calcium chloride). […]

For CCN(CC)CC(=O)Nc1c(C)cccc1C [lidocaine], the spontaneous contraction frequency was “decrease in the contraction frequency”.
